Source: ChEMBL document CHEMBL1201862, “PubChem BioAssay data set” (2004)
Active and inactive are the calls of the source.

Key:
Cytochrome P450 3A4 = Cytochrome P450 3A4 (Homo sapiens, UniProt P08684); settings: Potency;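 also: confirmatory qHTS run detecting inhibitors and substrates of CYP3A4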
[1] = inhibitors of Bluetongue virus cytopathic effect, confirmation, arbovirus, BSR cells (AID 1250); assay type: functional;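 also: protection from viral cytopathic effect measured as cell viability by ATP luminescence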
Major prion protein = Major prion protein (Homo sapiens, UniProt P04156); assay type: functional, cell-based
cells [2] = assay: cells
Beta-galactosidase = Beta-galactosidase (Escherichia coli, UniProt Q8VNN2); assay: PubChem AID 485352; assay type: functional
[3] = target: T1, Type-1 angiotensin II receptor (Homo sapiens, UniProt P30556); assay: AT1 receptor antagonists, dose response, selectivity assay for APJ receptor antagonist project, cell-based, uHTS hits (AID 463214); assay type: functional;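 also: antagonist potency against angiotensin II stimulated AT1 response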
T1 sequence (P30556 whole entry): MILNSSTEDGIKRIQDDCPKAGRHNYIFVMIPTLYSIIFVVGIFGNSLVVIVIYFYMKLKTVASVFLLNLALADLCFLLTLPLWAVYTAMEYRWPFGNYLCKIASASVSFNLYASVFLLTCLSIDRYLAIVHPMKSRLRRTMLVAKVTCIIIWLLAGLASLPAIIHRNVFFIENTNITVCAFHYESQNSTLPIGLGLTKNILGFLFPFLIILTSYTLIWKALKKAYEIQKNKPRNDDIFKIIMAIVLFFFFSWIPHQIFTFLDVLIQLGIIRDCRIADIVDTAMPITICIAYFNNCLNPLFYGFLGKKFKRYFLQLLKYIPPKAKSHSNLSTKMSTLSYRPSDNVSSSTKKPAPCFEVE

[4] = Shn3 3'UTR reporter inhibitors, dose response, cell-based, Clone20 osteoblasts, firefly luciferase, cherry-picked (AID 624132); assay type: functional;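 also: firefly luciferase luminescence from reporter carrying the Shn3 3'UTR in osteoblasts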
[5] = HepG2 cell cytotoxicity, dose response, cytotoxicity control for Shn3 inhibitor project, CellTiter-Glo, cherry-picked (AID 624134); assay type: functional, cell-based
[6] = control 3'UTR Renilla luciferase suppression, dose response, counter-screen for Shn3 inhibitor project, cell-based, Clone20-Shn3RL, cherry-picked (AID 624133); assay type: functional
[7] = inhibitors of HIV Env-driven cell fusion, dose response, cherry-pick (AID 652057); assay type: functional, cell-based
[8] = ZM109 Env clade C HIV-1 fusion inhibitors, dose response, HeLa effector, CEM target cells, luciferase, cherry-pick (AID 652058); assay type: functional, cell-based
[9] = off-target signal loss in HeLa-CEM21 co-culture – HeLa F-luc CTL cells, cherry-picked, counter-screen for HIV-1 Env fusion inhibitor project, dose response (AID 652040); assay type: functional, cell-based;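 also: potency for signal decrease marking cytotoxic or nonspecific inhibition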
[10] = inhibitors of clade B AD8 Env fusion, dose response, cell-based, cherry-pick (AID 652062); assay type: functional;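 also: luciferase signal from cell-cell fusion driven by HIV-1 clade B AD8 Env; potency is for inhibitors of fusion seen as a drop in luminescence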
[11] = target: T2, Ubiquitin-conjugating enzyme E2 N (Homo sapiens, UniProt P61088); assay type: functional;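 also: Dose-response confirmation in a TR-FRET assay detecting UBC13-driven polyubiquitin chain formation, inhibition measured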
T2 sequence (P61088 whole entry): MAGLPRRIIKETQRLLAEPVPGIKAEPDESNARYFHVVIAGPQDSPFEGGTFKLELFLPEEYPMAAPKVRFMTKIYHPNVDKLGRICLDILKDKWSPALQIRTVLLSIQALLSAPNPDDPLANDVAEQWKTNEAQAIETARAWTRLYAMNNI

cells [12] = assay type: functional
Leucine aminopeptidase = target: T3, Leucine aminopeptidase (Plasmodium falciparum 3D7, UniProt Q8IL11); assay: P. falciparum M17LAP inhibitors, primary screen, biochemical, fluorogenic H-Leu-NHMec substrate, 1536-well (AID 1619); assay type: functional
T3 sequence (Q8IL11 whole entry): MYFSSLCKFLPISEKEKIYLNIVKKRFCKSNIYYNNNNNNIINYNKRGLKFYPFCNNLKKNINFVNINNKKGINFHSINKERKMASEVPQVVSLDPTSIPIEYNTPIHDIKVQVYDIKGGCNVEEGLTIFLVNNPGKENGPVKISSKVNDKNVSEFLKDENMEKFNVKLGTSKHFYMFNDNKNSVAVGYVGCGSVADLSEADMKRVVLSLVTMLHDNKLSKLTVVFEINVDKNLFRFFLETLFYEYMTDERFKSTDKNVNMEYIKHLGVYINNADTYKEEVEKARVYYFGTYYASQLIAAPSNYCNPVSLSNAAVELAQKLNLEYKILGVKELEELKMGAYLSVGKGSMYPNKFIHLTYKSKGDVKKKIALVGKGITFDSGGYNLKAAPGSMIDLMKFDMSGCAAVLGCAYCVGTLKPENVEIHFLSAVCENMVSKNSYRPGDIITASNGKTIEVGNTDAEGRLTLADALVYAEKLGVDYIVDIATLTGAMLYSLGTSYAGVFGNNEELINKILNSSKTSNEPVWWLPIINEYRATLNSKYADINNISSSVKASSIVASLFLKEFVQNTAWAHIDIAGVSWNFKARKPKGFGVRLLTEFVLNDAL

[13] = tested on: Streptococcus sp. 'group A'; assay: growth inhibition of control SK(-) GAS strain, dose response, counter-screen for streptokinase expression inhibitor project, luminescence, kanamycin, BacTiterGlo, confirmation (AID 1900); assay type: functional, organism-based
Streptokinase A = target: T4, Streptokinase A (Streptococcus pyogenes serotype M1, UniProt P10520); assay: S. pyogenes streptokinase expression inhibitors, potency, dose response, plasminogen activation absorbance, OD405 (AID 1914); assay type: functional, Streptococcus pyogenes M1 GAS;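 also: secreted streptokinase activity via plasminogen activation per viability signal from cell pellet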
T4 sequence (P10520 whole entry): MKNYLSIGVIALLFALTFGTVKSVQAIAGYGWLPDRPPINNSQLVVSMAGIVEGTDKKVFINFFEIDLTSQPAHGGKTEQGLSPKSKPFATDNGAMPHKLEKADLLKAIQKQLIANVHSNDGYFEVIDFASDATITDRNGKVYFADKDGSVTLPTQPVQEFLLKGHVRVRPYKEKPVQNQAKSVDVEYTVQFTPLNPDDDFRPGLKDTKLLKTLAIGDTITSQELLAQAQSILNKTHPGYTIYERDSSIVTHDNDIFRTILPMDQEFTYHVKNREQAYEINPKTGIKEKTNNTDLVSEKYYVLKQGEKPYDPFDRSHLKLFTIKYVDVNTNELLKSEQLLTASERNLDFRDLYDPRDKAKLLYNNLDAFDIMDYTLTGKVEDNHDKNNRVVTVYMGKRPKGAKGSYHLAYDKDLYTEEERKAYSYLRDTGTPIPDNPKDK

Streptococcus = assay: Group A Streptococcus viability loss, dose response, counter-screen for streptokinase expression inhibitor project, luminescence, BacTiterGlo (AID 1915); assay type: functional, organism-based;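 also: potency for reduction of bacterial viability or growth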
[14] = P. falciparum 3D7-ScDHODH growth inhibitors, dose response, SYBR Green, dry powder samples (AID 1159570); assay type: functional, cell-based;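 also: parasite growth measured after 72 hours of compound exposure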
[15] = HepG2 cell cytotoxicity, dose response, cytotoxicity control, plate reader, dry powder samples (AID 1159569); assay type: functional, cell-based;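 also: inhibitor potency with signal falling toward the positive control level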
[16] = P. falciparum Dd2 growth inhibitors, dose response, SYBR Green, cherry-picked samples (AID 1159567); assay type: functional, cell-based
[17] = P. falciparum Dd2 growth inhibitors, dose response, SYBR Green, dry powder samples (AID 1159566); assay type: functional, cell-based;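 also: potency for growth inhibition with lower SYBR green DNA signal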
[18] = P. falciparum ATP4 D1247Y mutant growth inhibitors, dose response, NITD609-resistant line, SYBR Green, dry powder (AID 1159571); assay type: functional, cell-based;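 also: parasites synchronized at ring stage by sorbitol before testing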

In the case of `CC(C)CCN1CCc2nc(-c3ccccc3)c3c(c2C1)COC(C)C3` (stereo unspecified), the AC50 (Cytochrome P450 3A4) is reported as 3.16 µM (inconclusive).

With `CCOC(=O)c1nn(-c2cccc(Cl)c2)c2nc(Nc3ccccc3)cc(=O)n12` the IC50 [1] was 33 µM (active).

For `Cc1sc2ncnc(Sc3ccccc3C(=O)O)c2c1C`, the IC50 (Major prion protein) was 0.908 µM (active) and the IC50 (cells [2]) was > 138 µM (inactive).

With `FC(F)(F)c1cccc(Sc2nc(-c3ccccc3)nnc2C(F)(F)F)c1` the EC50 (Beta-galactosidase) was > 40 µM (inactive) and the IC50 [3] was 21.4 µM (not active).

For `SC1=NCCc2ccccc2C1c1ccccc1Cl` (stereo unspecified), the EC50 (Beta-galactosidase) was > 40 µM (inactive) and the IC50 [3] was 13.8 µM (active).

With `CCOc1ccc(C2C(C#N)=C(N)SC(N)=C2C#N)cc1OCC` the IC50 (Major prion protein) was 2.32 µM (active) and the IC50 (cells [2]) was > 138 µM (inactive).

In the case of `CCC1(C)Cc2ccccc2-c2[nH]c(=S)[nH]c(=O)c21` (stereo unspecified), the IC50 (Major prion protein) is reported as 2.93 µM (active).

For `CCC1(C)Cc2ccccc2-c2nc(S)nc(O)c21` (stereo unspecified), the IC50 (cells [2]) was > 138 µM (inactive).

For `FC(F)(F)c1ccc(CN2C[C@@H]3C(c4ccccc4)C4(c5ccccc5)CC3(C4)[C@H]2c2ccccc2)cc1` (stereo partly specified), the AC50 (Cytochrome P450 3A4) was 15.8 µM (inconclusive).

For `CC(=O)Nc1ccc(NC(=O)CCC(=O)OCC(=O)c2ccc(C)c([N+](=O)[O-])c2)cc1`, the EC50 (Beta-galactosidase) was > 40 µM (inactive) and the IC50 [3] was > 40 µM (not active).

For `O=C(c1ccccc1)N1CCN(c2ncnc3sc4c(c23)CCC4)CC1`, the AC50 [4] was 4.14 µM (active), the AC50 [5] was 48 µM (active) and the AC50 [6] was 4.25 µM (active). The AC50 [7] was 28.7 µM (active) and the AC50 [8] was 41.4 µM (active).

In the case of `COc1ccc([C@@H]2[C@@H]3C(=O)N(C(C)(C)C)C(=O)[C@@H]3[C@]3(CC(C)C)C(=O)N(c4ccc(C(F)(F)F)cc4)C(=O)N23)cc1`, the AC50 [7] is reported as 1.6 µM (active), the AC50 [8] is reported as 2.51 µM (active) and the AC50 [9] is reported as 3.8 µM (active). The AC50 [10] was 4.52 µM (active).

With `O=C(COc1ccc(Cl)cc1)NNC(=O)c1ccccn1` the IC50 [11] was > 20 µM (inactive) and the IC50 (cells [12]) was 6.74 µM (active).

For `Cc1ccc(C(=O)CNc2ccccc2C)cc1`, the EC50 (Beta-galactosidase) was > 40 µM (inactive) and the IC50 [3] was 8.2 µM (active).

In the case of `COc1cccc(OC)c1C(=O)NC(C)C12CC3CC(CC(C3)C1)C2` (stereo unspecified), the IC50 [1] is reported as 22.7 µM (active).

With `CC(C)=CCCC1(C)C=Cc2c(O)c3c(c(CC=C(C)C)c2O1)OC12C(=CC4CC1C(C)(C)OC2(C/C=C(/C)C(=O)O)C4=O)C3=O` (stereo unspecified) the AC50 (Cytochrome P450 3A4) was 39.8 µM (inconclusive).

For `Cc1ccc(C(=O)Nc2sc3c(c2C(=O)O)CCCCC3)o1`, the IC50 [1] was 28.4 µM (active).

In the case of `O=C(Cn1cc(C(=O)c2cccs2)c2ccccc21)NC1CCCCC1`, the IC50 [11] is reported as > 20 µM (inactive).

With `CC(=O)OC1CCC2C3CCc4cc(O)ccc4C3CCC12C` (stereo unspecified) the AC50 (Cytochrome P450 3A4) was 39.8 µM (inconclusive).

For `CCOC(=O)CC(=O)CSc1nc(O)c2sc(=S)n(-c3ccc(OCC)cc3)c2n1`, the IC50 (Leucine aminopeptidase) was 26.4 µM (active) and the IC50 [1] was 21.6 µM (active).

With `Cc1cc(NC(=O)CSc2nc(-c3cccs3)nc3ccccc23)no1` the IC50 (Major prion protein) was 2.15 µM (active) and the IC50 (cells [2]) was 53.6 µM (inactive).

In the case of `COc1ccc(NC(=O)Nc2ccc3c(c2)C(=O)N([C@H](C)CO)C[C@H](C)[C@H](CN(C)Cc2ccncc2)OCCCC[C@H](C)O3)cc1`, the AC50 [7] is reported as 13 µM (active), the AC50 [8] is reported as 8.87 µM (active) and the AC50 [10] is reported as 20.1 µM (active).

With `Cc1ccc(C)c(NC(=S)N/N=C2/CCCCc3ccccc32)c1` the EC50 [13] was 0.956 µM (active), the EC50 (Beta-galactosidase) was > 40 µM (inactive) and the EC50 (Streptokinase A) was > 150 µM (not active). The IC50 [3] was > 40 µM (not active) and the EC50 (Streptococcus) was > 150 µM (not active).

With `CO[C@H]1CN(C)C(=O)c2cc(NC(=O)Nc3cccc(Cl)c3)ccc2OC[C@H](C)NC[C@H]1C` the AC50 [14] was 3.37 µM (active), the AC50 [15] was 25 µM (active) and the AC50 [16] was 4.56 µM (active). For the same compound, the AC50 [17] was 3.03 µM (active) and the AC50 [18] was 5.09 µM (active).

In the case of `CO[C@@H]1CN(C)C(=O)c2ccc(NC(=O)Nc3ccc(C(F)(F)F)cc3)cc2OC[C@H](C)NC[C@H]1C`, the AC50 [14] is reported as 2.96 µM (active), the AC50 [15] is reported as 32.6 µM (active) and the AC50 [16] is reported as 2.13 µM (active). The AC50 [17] was 1.51 µM (active) and the AC50 [18] was 2.88 µM (active).

With `C[C@@H]1CN([C@H](C)CO)C(=O)c2cccc(NC(=O)c3ccc(-c4nccs4)cc3)c2O[C@H]1CN(C)Cc1ccc2c(c1)OCO2` the AC50 [14] was 3.63 µM (active), the AC50 [15] was > 100 µM (inactive) and the AC50 [16] was 1.19 µM (active). For the same compound, the AC50 [17] was 3.02 µM (active) and the AC50 [18] was 3.44 µM (active).

In the case of `C/C=C/c1ccc2c(c1)[C@H]1[C@H](CCN1S(=O)(=O)c1ccccc1C)[C@@H](CO)N2`, the AC50 [14] is reported as 1.46 µM (active), the AC50 [16] is reported as 1.83 µM (active) and the AC50 [17] is reported as 1.18 µM (active). The AC50 [18] was 0.942 µM (active).

In the case of `CCCCCC[C@H]1C(=O)O[C@H](C)[C@H](NC(=O)c2cccc(NC=O)c2O)C(=O)O[C@@H](C)[C@@H]1OC(=O)CC(C)C` [ANTIMYCIN A], the AC50 (Cytochrome P450 3A4) is reported as 6.31 µM (inconclusive).

In the case of `NC(=O)c1ccccc1` [BENZAMIDE], the AC50 (Cytochrome P450 3A4) is reported as 0.005 µM (inconclusive).
